In ChEMBL document CHEMBL1201862, “PubChem BioAssay data set” (2004):
“And” between values parts separate entries of the source, which are not always exact repeats. Equal entries are not always repeated. The source made the active and inactive calls.

Columns and labels:
[1] = biological target: Tumor necrosis factor (Homo sapiens, UniProt P01375); assay: TNFa-triggered NF-kB activation inhibitors, SAR follow-up, cell-based, revised (AID 2337); type: functional
[2] = system: HEK293; assay: cells; conditions: Homo sapiens;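 note: cells exposed to compound for 14 hours overnight before viability readout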
[3] = biological target: DNA dC->dU-editing enzyme APOBEC-3A (Homo sapiens, UniProt P31941); assay: Dose Response confirmation of small molecule APOBEC3A DNA Deaminase Inhibitors via a fluorescence-based single-stranded DNA deaminase assay. [Related pubchem assays (depositor defined):AID493011, AID493024]; type: functional
DNA dC->dU-editing enzyme APOBEC-3A, sequence (P31941 whole entry): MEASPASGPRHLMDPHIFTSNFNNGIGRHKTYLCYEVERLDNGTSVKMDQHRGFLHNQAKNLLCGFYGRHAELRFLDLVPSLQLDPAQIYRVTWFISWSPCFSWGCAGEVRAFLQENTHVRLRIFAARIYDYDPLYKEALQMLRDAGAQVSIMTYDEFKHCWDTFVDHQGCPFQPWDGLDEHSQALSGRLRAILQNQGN

[4] = biological target: DNA dC->dU-editing enzyme APOBEC-3G (Homo sapiens, UniProt Q9HC16); type: functional;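 note: Dose-response counterscreen measuring inhibition of APOBEC3G DNA deaminase activity, run while confirming APOBEC3A inhibitors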
DNA dC->dU-editing enzyme APOBEC-3G, sequence (Q9HC16 whole entry, the tested form may be a part): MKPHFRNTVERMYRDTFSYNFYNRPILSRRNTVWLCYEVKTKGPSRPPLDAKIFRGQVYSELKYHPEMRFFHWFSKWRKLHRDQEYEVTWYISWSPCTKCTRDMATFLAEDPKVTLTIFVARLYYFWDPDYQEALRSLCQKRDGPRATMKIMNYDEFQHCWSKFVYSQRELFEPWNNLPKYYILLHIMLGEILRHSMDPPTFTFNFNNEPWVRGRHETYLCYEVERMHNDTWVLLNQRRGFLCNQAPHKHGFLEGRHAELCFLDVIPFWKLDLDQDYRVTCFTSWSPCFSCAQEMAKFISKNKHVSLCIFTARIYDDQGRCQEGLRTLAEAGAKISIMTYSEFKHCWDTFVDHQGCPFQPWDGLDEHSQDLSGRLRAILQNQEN

[5] = biological target: T1, Carboxy-terminal domain RNA polymerase II polypeptide A small phosphatase 1 (Homo sapiens, UniProt Q9GZU7); assay: inhibitors of CTDSP1, concentration-response testing, biochemical assay, absorbance-based, actives from ultra-high-throughput screening (AID 540297); type: functional
T1 sequence (Q9GZU7 whole entry): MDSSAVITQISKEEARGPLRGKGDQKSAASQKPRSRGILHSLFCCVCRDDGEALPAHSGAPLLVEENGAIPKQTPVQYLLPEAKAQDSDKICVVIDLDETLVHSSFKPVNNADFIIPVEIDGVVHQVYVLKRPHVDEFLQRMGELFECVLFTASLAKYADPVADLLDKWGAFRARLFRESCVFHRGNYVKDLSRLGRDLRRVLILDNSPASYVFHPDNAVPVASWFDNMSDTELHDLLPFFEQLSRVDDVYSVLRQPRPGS

[6] = biological target: 1-acylglycerol-3-phosphate O-acyltransferase ABHD5/Perilipin-5 (Homo sapiens, UniProt Q00G26+Q8WTS1); assay: Luminescence-based biochemical high throughput dose response assay for inhibitors of the interaction of the lipase co-activator protein, abhydrolase domain containing 5 (ABHD5) with perilipin-5 (MLDP; PLIN5) (2K validation set). [Related pubchem assays (depositor defined):AID493035, AID493241]
1-acylglycerol-3-phosphate O-acyltransferase ABHD5/Perilipin-5, sequence (Q00G26 whole entry, the tested form may be a part): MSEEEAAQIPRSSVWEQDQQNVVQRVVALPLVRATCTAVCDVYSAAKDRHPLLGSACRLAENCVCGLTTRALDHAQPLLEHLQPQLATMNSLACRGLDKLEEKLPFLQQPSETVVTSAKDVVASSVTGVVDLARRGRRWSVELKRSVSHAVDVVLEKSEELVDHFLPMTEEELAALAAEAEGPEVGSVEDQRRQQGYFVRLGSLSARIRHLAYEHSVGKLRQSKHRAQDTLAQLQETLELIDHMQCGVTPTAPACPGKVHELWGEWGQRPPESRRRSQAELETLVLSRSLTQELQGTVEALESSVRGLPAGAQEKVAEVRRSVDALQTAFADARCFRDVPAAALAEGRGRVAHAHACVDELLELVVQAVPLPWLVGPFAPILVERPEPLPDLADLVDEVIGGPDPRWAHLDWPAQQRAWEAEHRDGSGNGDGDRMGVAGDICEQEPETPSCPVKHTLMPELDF
1-acylglycerol-3-phosphate O-acyltransferase ABHD5/Perilipin-5, sequence (Q8WTS1 whole entry, the tested form may be a part): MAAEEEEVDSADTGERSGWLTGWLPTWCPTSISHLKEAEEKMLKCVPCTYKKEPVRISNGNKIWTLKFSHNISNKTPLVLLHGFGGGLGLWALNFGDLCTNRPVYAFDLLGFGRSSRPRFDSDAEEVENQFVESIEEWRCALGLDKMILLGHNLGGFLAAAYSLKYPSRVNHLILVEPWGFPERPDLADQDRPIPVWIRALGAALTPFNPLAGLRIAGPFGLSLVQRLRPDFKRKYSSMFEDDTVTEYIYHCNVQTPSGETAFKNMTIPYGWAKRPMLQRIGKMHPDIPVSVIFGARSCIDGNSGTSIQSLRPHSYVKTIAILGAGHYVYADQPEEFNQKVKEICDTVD

[7] = biological target: Perilipin-1/ABHD5 (Homo sapiens, UniProt O60240+Q8WTS1); assay: Luminescence-based biochemical high throughput dose response assay for inhibitors of the interaction of the lipase co-activator protein, abhydrolase domain containing 5 (ABHD5) with perilipin-1 (PLIN1) (2K validation set). [Related pubchem assays (depositor defined):AID493027, AID493057]
Perilipin-1/ABHD5, sequence (Q8WTS1 whole entry, the tested form may be a part): as above
Perilipin-1/ABHD5, sequence (O60240 whole entry, the tested form may be a part): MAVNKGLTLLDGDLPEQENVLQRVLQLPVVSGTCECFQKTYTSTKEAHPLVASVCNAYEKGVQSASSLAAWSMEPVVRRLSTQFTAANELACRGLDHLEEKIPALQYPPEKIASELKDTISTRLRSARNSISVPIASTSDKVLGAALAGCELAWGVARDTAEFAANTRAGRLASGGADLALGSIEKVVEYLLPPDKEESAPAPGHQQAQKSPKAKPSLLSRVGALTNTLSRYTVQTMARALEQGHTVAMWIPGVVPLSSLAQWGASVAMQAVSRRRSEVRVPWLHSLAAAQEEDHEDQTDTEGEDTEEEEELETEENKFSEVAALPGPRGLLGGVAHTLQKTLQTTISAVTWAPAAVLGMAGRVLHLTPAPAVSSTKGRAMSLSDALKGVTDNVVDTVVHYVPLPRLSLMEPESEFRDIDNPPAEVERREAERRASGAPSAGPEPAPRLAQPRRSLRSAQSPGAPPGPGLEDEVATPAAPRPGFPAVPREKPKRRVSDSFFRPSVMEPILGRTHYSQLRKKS

[8] = biological target: SUMO-activating enzyme (Homo sapiens, UniProt Q9UBT2); assay: SUMOylation inhibitor hit validation, confirmation, SUMOylation inhibitor project, biochemical, AlphaScreen (AID 2018); type: functional
SUMO-activating enzyme, sequence (Q9UBE0 whole entry): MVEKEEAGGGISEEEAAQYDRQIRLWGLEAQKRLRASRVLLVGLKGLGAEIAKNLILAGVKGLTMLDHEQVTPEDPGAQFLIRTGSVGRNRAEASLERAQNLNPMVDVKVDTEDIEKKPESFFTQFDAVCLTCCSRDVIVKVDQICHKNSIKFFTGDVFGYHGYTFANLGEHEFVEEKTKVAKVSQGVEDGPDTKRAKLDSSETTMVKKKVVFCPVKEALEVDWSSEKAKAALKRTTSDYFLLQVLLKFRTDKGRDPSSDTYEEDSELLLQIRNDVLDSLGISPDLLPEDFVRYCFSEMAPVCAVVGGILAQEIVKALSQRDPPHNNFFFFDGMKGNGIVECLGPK
SUMO-activating enzyme, sequence (Q9UBT2 whole entry): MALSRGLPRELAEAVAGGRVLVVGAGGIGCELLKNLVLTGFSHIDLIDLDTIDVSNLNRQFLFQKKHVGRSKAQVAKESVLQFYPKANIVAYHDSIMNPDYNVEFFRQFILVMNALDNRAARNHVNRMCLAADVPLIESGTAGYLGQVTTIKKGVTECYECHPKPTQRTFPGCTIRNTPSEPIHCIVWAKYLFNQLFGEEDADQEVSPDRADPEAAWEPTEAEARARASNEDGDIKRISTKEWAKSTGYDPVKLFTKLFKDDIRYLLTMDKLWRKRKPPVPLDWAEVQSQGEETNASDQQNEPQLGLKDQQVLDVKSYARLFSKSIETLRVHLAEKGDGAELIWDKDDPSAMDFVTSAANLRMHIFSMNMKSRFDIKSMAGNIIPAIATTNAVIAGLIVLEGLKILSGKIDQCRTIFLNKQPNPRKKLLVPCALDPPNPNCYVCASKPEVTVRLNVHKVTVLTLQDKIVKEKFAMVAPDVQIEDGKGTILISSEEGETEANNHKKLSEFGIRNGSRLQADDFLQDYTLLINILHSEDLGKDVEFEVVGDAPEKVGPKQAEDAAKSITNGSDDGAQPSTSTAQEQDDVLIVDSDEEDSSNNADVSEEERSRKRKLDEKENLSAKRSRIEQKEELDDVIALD

[9] = THP-1 cell cytotoxicity, dose response, cytotoxicity control for non-replicating M. tuberculosis project (AID 489025); type: functional
[10] = HepG2 cell cytotoxicity, dose response, cytotoxicity control for non-replicating M. tuberculosis project (AID 489018); type: functional; conditions: Mycobacterium tuberculosis
[11] = Vero E6 cell cytotoxicity, dose response, cytotoxicity control for non-replicating M. tuberculosis project, secondary assay (AID 492998); type: functional, VeroE6; conditions: Vero C1008
[12] = cells; type: functional
[13] = biological target: Ion channel NompC (Danio rerio, UniProt Q7T1G6); assay: Dose response cell-based high-throughput screening assay for agonists of the transient receptor potential channel N1 (TRPN1). [Related pubchem assays (depositor defined):AID1424, AID1448]; type: functional
[14] = biological target: T2, Mucolipin-3 (Homo sapiens, UniProt Q8TDD5); assay: Fluorescence counterscreen assay for […] agonists: dose response cell-based high-throughput screening assay to identify agonists of the transient receptor potential channel ML3 (TRPML3). [Related pubchem assays: 1424, 1448 ]; type: functional
T2 sequence (Q8TDD5 whole entry): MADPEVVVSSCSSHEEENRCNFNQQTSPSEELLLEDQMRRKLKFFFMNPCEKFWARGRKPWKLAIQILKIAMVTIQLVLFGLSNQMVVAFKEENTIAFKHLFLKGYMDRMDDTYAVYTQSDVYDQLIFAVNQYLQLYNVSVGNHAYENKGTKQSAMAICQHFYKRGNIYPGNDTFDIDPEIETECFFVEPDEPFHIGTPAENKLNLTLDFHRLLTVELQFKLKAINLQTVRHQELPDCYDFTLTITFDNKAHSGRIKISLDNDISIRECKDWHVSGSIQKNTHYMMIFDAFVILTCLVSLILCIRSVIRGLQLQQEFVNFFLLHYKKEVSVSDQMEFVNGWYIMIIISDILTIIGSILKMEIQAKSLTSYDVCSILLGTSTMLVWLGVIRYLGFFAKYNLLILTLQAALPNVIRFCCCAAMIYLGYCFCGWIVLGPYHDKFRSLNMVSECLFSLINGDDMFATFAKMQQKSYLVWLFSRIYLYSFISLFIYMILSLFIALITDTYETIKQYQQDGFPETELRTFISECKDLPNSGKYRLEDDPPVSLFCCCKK

[15] = biological target: T3, Probable nicotinate-nucleotide adenylyltransferase (Staphylococcus aureus (strain N315), UniProt P65502); type: functional, Staphylococcus aureus subsp. aureus N315;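 for IC50 Mean: confirmatory dose-response retesting of NadD inhibitor hits first found in an ultra-high-throughput screen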
T3 sequence (P65502 whole entry): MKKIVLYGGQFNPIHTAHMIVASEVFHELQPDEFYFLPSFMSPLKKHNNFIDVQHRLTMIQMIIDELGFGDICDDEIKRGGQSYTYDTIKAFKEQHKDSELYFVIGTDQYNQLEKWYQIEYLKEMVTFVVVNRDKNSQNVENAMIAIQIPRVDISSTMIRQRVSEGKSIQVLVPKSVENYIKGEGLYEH

[16] = biological target: T3, Probable nicotinate-nucleotide adenylyltransferase; type: functional, Staphylococcus aureus subsp. aureus N315; conditions: read-out: IC50_Mean
[17] = biological target: Intestinal-type alkaline phosphatase (Mus musculus, UniProt P24822); assay: PubChem AID 488874; type: functional
[18] = biological target: T4, Intestinal-type alkaline phosphatase (Homo sapiens, UniProt P09923); assay: human intestinal alkaline phosphatase activators, dose response, biochemical, luminescence, uHTS hits (AID 463120); type: functional
T4 sequence (P09923 whole entry): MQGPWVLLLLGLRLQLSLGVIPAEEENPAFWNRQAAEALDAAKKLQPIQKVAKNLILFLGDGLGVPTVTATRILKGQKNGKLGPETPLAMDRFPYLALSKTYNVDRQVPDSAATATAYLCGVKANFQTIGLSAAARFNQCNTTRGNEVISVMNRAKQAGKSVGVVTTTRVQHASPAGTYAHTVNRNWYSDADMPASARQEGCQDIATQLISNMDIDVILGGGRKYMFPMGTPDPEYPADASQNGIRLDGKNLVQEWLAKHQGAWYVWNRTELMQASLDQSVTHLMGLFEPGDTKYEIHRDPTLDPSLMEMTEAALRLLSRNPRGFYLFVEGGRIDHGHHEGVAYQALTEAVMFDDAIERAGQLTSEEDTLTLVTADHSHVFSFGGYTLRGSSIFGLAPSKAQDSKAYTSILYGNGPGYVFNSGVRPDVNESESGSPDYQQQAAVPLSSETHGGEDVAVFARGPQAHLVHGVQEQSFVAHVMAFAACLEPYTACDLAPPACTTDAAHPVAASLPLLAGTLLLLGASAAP

[19] = biological target: T4, Intestinal-type alkaline phosphatase; assay: human IAP activators, dose response, biochemical, luminescent, uHTS hits, set 2 (AID 488817); type: functional;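 note: potency of activators that raise enzyme activity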
[20] = biological target: T5, Alkaline phosphatase, tissue-nonspecific isozyme (Homo sapiens, UniProt P05186); assay: TNAP enzyme activators, dose response, selectivity assay for human IAP activator project, biochemical, TNAP isozyme, human IAP uHTS hits (AID 488886); type: functional;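 note: potency of compounds raising TNAP activity as a selectivity check on IAP activators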
T5 sequence (P05186 whole entry): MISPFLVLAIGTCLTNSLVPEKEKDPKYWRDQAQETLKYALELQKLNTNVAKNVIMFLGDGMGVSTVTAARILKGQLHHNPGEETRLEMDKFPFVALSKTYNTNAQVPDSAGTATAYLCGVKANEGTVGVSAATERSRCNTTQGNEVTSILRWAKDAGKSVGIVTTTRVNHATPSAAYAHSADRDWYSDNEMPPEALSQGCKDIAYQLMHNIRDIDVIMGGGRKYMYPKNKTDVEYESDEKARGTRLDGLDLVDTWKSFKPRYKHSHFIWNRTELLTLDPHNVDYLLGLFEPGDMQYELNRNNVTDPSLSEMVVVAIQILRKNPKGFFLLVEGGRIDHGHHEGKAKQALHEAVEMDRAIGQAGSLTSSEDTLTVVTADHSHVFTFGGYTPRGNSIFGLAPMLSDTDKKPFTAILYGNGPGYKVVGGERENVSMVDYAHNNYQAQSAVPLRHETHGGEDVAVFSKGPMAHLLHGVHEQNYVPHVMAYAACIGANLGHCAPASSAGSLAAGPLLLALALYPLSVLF

[21] = Artemis endonuclease inhibitor potency, dose response, biochemical, fluorescence intensity (AID 720701); type: functional;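 note: Artemis endonuclease enzyme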
[22] = biological target: T6, Cytochrome P450 1A2 (Homo sapiens, UniProt P05177);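 note: PubChem cytochrome P450 panel assay, CYP1A2 panel member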
T6 sequence (P05177 whole entry): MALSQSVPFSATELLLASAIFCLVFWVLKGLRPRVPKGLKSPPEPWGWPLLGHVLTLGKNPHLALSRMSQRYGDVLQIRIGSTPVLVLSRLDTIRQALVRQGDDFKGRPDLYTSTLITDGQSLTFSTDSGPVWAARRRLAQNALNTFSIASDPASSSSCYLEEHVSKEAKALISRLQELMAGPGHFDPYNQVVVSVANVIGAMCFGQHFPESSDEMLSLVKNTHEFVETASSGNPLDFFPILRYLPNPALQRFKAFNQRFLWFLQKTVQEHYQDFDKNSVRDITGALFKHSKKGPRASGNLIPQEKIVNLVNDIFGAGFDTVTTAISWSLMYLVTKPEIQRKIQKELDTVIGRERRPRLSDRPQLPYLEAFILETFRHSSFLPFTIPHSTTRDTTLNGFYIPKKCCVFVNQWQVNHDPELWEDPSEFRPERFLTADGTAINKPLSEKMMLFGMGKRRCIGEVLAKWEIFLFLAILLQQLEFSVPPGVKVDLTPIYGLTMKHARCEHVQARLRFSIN

[23] = biological target: Cytochrome P450 3A4 (Homo sapiens, UniProt P08684);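 note: CYP3A4 tested as one member of a cytochrome P450 panel screen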
[24] = biological target: Coagulation factor XII (Homo sapiens, UniProt P00748); type: functional;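 note: activated factor XIIa alpha cleaving a fluorogenic AMC peptide substrate; inhibitor potency from loss of enzyme activity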
Coagulation factor XII, sequence (P00748 20-372 limits assumed): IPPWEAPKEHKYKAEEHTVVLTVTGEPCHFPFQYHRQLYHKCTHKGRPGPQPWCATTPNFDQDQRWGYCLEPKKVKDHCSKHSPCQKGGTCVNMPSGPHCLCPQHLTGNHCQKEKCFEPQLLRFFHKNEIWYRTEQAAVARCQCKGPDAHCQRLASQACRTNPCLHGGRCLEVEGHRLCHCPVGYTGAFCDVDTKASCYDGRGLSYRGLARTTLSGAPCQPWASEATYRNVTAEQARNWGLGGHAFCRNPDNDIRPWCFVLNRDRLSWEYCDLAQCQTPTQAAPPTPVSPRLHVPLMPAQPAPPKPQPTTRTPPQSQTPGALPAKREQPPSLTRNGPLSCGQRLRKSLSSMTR
Coagulation factor XII, sequence (P00748 373-615 limits assumed): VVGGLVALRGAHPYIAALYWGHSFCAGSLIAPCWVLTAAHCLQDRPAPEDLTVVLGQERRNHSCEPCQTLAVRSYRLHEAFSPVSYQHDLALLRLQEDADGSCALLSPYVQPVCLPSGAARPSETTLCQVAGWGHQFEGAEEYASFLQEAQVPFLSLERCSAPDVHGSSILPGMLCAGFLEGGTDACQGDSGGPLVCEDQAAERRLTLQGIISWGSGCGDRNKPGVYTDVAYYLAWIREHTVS

[25] = biological target: T7, Mannose-6-phosphate isomerase (Homo sapiens, UniProt P34949); assay: PMI enzyme inhibitors, confirmation, biochemical, fluorescence intensity (AID 1535)
T7 sequence (P34949 whole entry): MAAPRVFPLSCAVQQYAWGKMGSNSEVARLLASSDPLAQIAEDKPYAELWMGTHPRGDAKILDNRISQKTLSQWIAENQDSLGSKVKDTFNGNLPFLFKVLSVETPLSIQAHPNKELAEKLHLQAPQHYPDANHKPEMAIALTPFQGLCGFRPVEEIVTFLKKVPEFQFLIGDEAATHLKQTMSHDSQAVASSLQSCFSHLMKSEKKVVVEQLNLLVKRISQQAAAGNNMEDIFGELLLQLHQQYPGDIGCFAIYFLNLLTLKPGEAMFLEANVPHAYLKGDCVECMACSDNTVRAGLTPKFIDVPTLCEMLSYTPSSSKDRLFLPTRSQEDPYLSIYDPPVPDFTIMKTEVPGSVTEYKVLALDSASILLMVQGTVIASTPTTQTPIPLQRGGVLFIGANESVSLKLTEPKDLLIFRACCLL

[26] = biological target: T8, Phosphomannomutase 2 (Homo sapiens, UniProt O15305); assay: Counter screen SAR assay for PMM2 inhibitors via a fluorescence intensity assay. [Related pubchem assays (depositor defined):AID1545, AID1574]
T8 sequence (O15305 whole entry): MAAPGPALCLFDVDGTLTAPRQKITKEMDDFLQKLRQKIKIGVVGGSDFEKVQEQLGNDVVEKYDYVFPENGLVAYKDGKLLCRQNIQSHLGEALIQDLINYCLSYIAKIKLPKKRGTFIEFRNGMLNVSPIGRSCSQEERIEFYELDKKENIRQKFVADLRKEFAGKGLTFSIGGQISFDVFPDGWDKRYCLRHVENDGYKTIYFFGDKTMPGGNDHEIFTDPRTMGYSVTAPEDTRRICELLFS

[27] = biological target: Phosphoethanolamine/phosphocholine phosphatase (Homo sapiens, UniProt Q8TCT1); assay: SAR assay for compounds that inhibit PHOSPHO1. [Related pubchem assays (depositor defined):AID1545, AID1565, AID1574]
Phosphoethanolamine/phosphocholine phosphatase, sequence (Q8TCT1 whole entry): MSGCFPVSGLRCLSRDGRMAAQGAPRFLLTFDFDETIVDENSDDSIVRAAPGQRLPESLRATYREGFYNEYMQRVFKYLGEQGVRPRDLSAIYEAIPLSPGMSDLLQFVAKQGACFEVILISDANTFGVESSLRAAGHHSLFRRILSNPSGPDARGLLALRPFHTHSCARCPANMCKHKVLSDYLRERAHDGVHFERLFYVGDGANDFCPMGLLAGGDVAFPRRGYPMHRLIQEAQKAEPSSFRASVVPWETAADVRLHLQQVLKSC

[28] = biological target: T5, Alkaline phosphatase, tissue-nonspecific isozyme; assay: human TNAP enzyme inhibitors, SAR follow-up, biochemical, luminescent, dose response (AID 1056)

Tumor necrosis factor, sequence (P01375 whole entry): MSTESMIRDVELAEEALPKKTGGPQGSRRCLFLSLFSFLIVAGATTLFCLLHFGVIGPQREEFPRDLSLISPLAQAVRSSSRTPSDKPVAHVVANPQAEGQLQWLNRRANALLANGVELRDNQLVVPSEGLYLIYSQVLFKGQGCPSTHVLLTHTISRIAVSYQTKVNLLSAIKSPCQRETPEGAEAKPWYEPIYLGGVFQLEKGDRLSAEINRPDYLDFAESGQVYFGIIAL

**Q.** What does the source list for CC(=O)c1ccc(N2CCN(S(=O)(=O)c3ccc4c(c3)CCN4C(C)=O)CC2)cc1?
**A.** IC50 [1]: 13.2 µM (active); IC50 [2]: > 20 µM (inactive)

**Q.** Which IC50 [3] does the source give for C=CC#CC1(O)CC(C)[N+](C)(C)CC1C (stereo not drawn) here?
**A.** 1.97 µM (active)

**Q.** What about the IC50 [4] of the same compound?
**A.** 5.58 µM (active)

**Q.** And the IC50 [5]?
**A.** 7.57 µM (active)

**Q.** What does the source list for N#C/C(=C/c1ccccc1)C(=O)NCc1ccccc1?
**A.** IC50 [6]: 17.2 µM (inactive); IC50 [7]: 13.1 µM (inactive)

**Q.** Which results are given for CCN1C(NCc2cc(OC)c(OC)c(OC)c2)=N[C@@H](c2ccccc2)C(C(=O)OC)=C1C?
**A.** IC50 [3]: 4.15 µM (active); IC50 [4]: 3.54 µM (active)

**Q.** With CCOc1ccc(-n2c(SCC(=O)Nc3ccc(CC)cc3)nc3nnc(C)c-3c2N)cc1 as the compound, how does the IC50 [8] read?
**A.** 36.9 µM (active)

**Q.** For Cc1ccc(C2=NOC(=O)/C2=C\C=C\c2ccccc2)cc1, which IC50 [6] is on record?
**A.** 1.12 µM (active)

**Q.** What about the IC50 [7] of the same compound?
**A.** 1.23 µM (active)

**Q.** Which CC50 [9] does the source give for O=C(NC(=S)N1CCc2ccccc21)c1ccccc1 here?
**A.** > 40 µM (active)

**Q.** And the CC50 [10]?
**A.** > 20 µM (active)

**Q.** What about the CC50 [11] of the same compound?
**A.** > 20 µM (active)

**Q.** And the IC50 [12]?
**A.** 9.86 µM (active)

**Q.** With COc1ccc(C(=O)NNC(=S)NC(=O)c2cc(-c3ccccc3)nc3ccccc23)cc1 as the compound, how does the EC50 [13] read?
**A.** > 29.9 µM (inactive)

**Q.** What about the EC50 [14] of the same compound?
**A.** > 29.9 µM (not active)

**Q.** And the IC50 [15]?
**A.** 7.14 µM (active)

**Q.** And the IC50 [16]?
**A.** 26.4 µM (active)

**Q.** With Cc1ccc(S(=O)(=O)NCCC(=O)NNC(=O)COc2ccc(Br)cc2)cc1C as the compound, how does the IC50 [17] read?
**A.** 89.4 µM (active)

**Q.** And the EC50 [18]?
**A.** 11.5 µM (active)

**Q.** And the EC50 [19]?
**A.** 16 µM (active)

**Q.** What about the EC50 [20] of the same compound?
**A.** 16.4 µM (active)

**Q.** For CCN1CCc2nc(NC(=O)CC(c3ccccc3)c3ccccc3)sc2C1, which IC50 [21] is on record?
**A.** 9.25 µM (active)

**Q.** And the AC50 [22]?
**A.** 15.8 µM (inconclusive)

**Q.** And the AC50 [23]?
**A.** inconclusive

**Q.** Which IC50 [24] does the source give for CC(C)=CCC/C(C)=C/CC/C(C)=N/O here?
**A.** > 50 µM (inactive)

**Q.** Which IC50 [24] does the source give for CNS(=O)(=O)c1cc(C(=O)O)ccc1OC here?
**A.** > 50 µM (inactive)

**Q.** What does the source list for Cc1ccc(C)c(-n2sc3cc(F)ccc3c2=O)c1?
**A.** IC50 [25]: 0.985 µM (active); IC50 [26]: 9.95 µM (active) and 4.57 µM (active); IC50 [27]: 4.1 µM (inactive); IC50 [28]: > 100 µM (inactive)
